# US10035980B2, “Extracellular matrix derived from stem cells and methods for production” (FLORIDA STATE UNIVERSITY RESEARCH FOUNDATION, INC., priority 2013, dated 2018)
# What was measured:
# Format in all cases: cell-based, Murine
# ESCs [1] = test: ESC reseeding and proliferation on decellularized ECMs (specific growth rate)
# Protocol: (§1) To assess cell proliferation, ESCs of 0.5×10^5 per mL were seeded on the decelluarized ECMs and cultivated for 4 days in expansion media without LIF (FIG. 1). […] Cell numbers were determined at days 0, 2, and 4 using a hemocytometer after trypsin/EDTA dissociation. The specific growth rates were calculated as the slope of the proliferation curve. Cell viability was determined by the incubation with 5 mg/mL 3-(4,5-Dimethylthiazol-2-yl)-2,5-diphenyltetrazolium bromide (MTT, Sigma) solution. Afterwards, the formazan crystals were hydrolyzed with dimethyl sulfoxide (Sigma) and measured at 500 nm using a microplate reader. For the test of RA signaling, soluble RA (1 μM) or BMS 493 (1 μM, Santa Cruz), a pan-RAR antagonist, was supplemented in the media. To assess the differentiation ability after culturing on the decellularized ECMs, ESCs were replated on 0.1% gelatin-coated 12-well plates and cultured for 7 days in differentiation medium without any inducing growth factors. The cells were evaluated for the expression of Nestin (ectoderm), β-tubulin III (ectoderm), α-actinin (mesoderm), and FOXA2 (endoderm).
# ESC-derived NPCs [2] = test: Neural marker expression of reseeded NPCs by flow cytometry; details: for GFAP expression upon BMS 493 treatment: FIG. 17D
# Protocol: For various ECM scaffolds, 1×10^6 dissociated NPCs or intact NPC aggregates derived from ESCs were reseeded on the ECM scaffolds and cultivated for 3-4 days in DMEM-F12 containing 2% B27. The cells were analyzed for colonization on the scaffolds, proliferation, and viability. To study the effect of retinoid signaling, BMS 493 (1 μM, Santa Cruz), a pan-retinoic acid receptor (RAR) antagonist, was supplemented in the media for some experiments. After 3 days of culture in suspension, the NPC-ECM constructs were replated in 24-well plates coated with Geltrex™, the LDEV-Free Reduced Growth Factor Basement Membrane Matrix (Life Technologies), for another 3 days. The differentiation was assessed by immunocytochemistry for neural markers. […] The samples were then blocked and incubated with mouse or rabbit primary antibody against: Nestin (Sigma) or Musashi-1 (Abcam) for neural progenitors, β-tubulin III (Millipore) for neurons, or GFAP (Millipore) for astrocytes. After washing, the cells were incubated with the corresponding secondary antibody: Alexa Fluor® 488 goat anti-Mouse IgG1 for GFAP and β-tubulin III, or Alexa Fluor® 488 goat anti-Rabbit IgG for Nestin and Musashi-1 (Molecular Probes). The samples were mounted with 4′,6-Diamidino-2-Phenylindole (DAPI) and visualized using a fluorescent microscope. To quantify the levels of neural marker expression, the cells on ECM scaffolds were harvested by trypsinization and analyzed by flow cytometry. Briefly, 1×10^6 cells per sample were fixed with 4% PFA and washed with staining buffer (2% FBS in PBS). […] Alexa Fluor® 488 goat anti-Mouse IgG1 (for GFAP and β-tubulin III) or Alexa Fluor® 488 goat anti-Rabbit IgG (for Nestin and Musashi-1). The cells were acquired with BD FACSCanto™ II flow cytometer (Becton Dickinson) and analyzed against isotype controls using FlowJo software.
# ESC-derived NPCs [3] = test: NPC proliferation assays on ECM scaffolds (fold expansion, MTT); details: NPCs on DE-EC and DE-NG scaffolds, BMS 493 1 μM, FIG. 17A
# Protocol: For various ECM scaffolds, 1×10^6 dissociated NPCs or intact NPC aggregates derived from ESCs were reseeded on the ECM scaffolds and cultivated for 3-4 days in DMEM-F12 containing 2% B27. The cells were analyzed for colonization on the scaffolds, proliferation, and viability. To study the effect of retinoid signaling, BMS 493 (1 μM, Santa Cruz), a pan-retinoic acid receptor (RAR) antagonist, was supplemented in the media for some experiments.
# Cell proliferation assays: Cell numbers were determined at days 3 using a hemocytometer after trypsin/EDTA dissociation for fold expansion. Cell proliferation kinetics was also determined by incubating with 5 mg/mL 3-(4,5-Dimethylthiazol-2-yl)-2,5-diphenyltetrazolium bromide (MTT, Sigma) solution. Afterwards, the formazan crystals were hydrolyzed with dimethyl sulfoxide (Sigma) and measured at 500 nm using a microplate reader.
# ESCs [4] = test: Three-germ layer differentiation of ESCs grown on decellularized ECM scaffolds
# Protocol: (§2) To detect differentiation markers, the cells were incubated with mouse or rabbit primary antibody against: Nestin (Millipore), β-tubulin III (Sigma), α-actinin (sarcomeric, Sigma), or FOXA2 (Millipore). After washing, the cells were incubated with the corresponding secondary antibody: ALEXA FLUOR 488 goat anti-Mouse IgG1 (for Nestin and α-actinin) or IgG2b (for β-Tubulin III), or ALEXA FLUOR 488 goat anti-Rabbit IgG (for FOXA2). The localization of RAR-α was also assessed using goat anti-Rabbit RAR-α antibody (Abcam) detected by ALEXA FLUOR 594 donkey anti-Goat IgG.
# as §1
# For flow cytometry, 1×10^6 cells per sample were fixed with 4% PFA and washed with staining buffer (2% FBS in PBS). The cells were stained with DNA-intercalating dye ethidium monoazide bromide (EMA, Sigma) and permeabilized with 100% cold methanol. The samples were incubated with primary antibodies against Oct-4 (Millipore), Nestin, β-tubulin III, α-actinin, or FOXA2 followed by the corresponding secondary antibody: ALEXA FLUOR 488 goat anti-Mouse IgG1 (for Oct-4, Nestin, and α-actinin) or IgG2b (for β-tubulin III), or ALEXA FLUOR 488 goat anti-Rabbit IgG (for FOXA2). The cells were acquired with BD FACSCANTO II flow cytometer (Becton Dickinson) and analyzed against isotype controls using FlowJo software.
# ESCs [5] = test: Oct-4 expression of reseeded ESCs by flow cytometry
# Protocol: as §1
# For flow cytometry, 1×10^6 cells per sample were fixed with 4% PFA and washed with staining buffer (2% FBS in PBS). […] The cells were acquired with BD FACSCANTO II flow cytometer (Becton Dickinson) and analyzed against isotype controls using FlowJo software.
# RAR-α = target: T1, RAR-α (Mus musculus, UniProt P11416); test: RAR-α localization in ESCs by immunocytochemistry; details: ESCs on DE-RA10 without soluble RA; ESC monolayers exposed to soluble RA, FIG. 8A
# T1 construct: Localization of RAR-α in ESC monolayers with or without RA treatment; endogenous in cells; host or cells: embryonic stem cells (monolayers, or reseeded on DE-RA10 scaffolds)
# T1 sequence (P11416 1-462): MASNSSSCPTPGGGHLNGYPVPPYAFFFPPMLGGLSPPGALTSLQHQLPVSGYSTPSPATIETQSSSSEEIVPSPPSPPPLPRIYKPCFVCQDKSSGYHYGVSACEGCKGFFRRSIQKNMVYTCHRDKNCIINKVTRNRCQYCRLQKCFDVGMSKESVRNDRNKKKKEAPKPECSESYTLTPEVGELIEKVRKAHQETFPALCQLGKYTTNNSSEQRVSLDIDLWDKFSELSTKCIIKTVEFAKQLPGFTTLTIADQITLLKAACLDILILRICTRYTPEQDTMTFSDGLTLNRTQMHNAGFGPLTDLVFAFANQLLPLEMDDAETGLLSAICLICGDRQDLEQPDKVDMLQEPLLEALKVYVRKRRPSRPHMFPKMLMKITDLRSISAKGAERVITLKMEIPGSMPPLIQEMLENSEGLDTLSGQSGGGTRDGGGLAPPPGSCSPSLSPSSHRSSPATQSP
# Protocol: as §2
# as §1, with “For the test of RA signaling, soluble RA (1 μM) or BMS 493 (1 μM, Santa Cruz), a pan-RAR antagonist, was supplemented in the media. To assess the differentiation ability after culturing on the decellularized ECMs, ESCs were replated on 0.1% gelatin-coated 12-well plates and cultured for 7 days in differentiation medium without any inducing growth factors.” left out
# [6] = BMS 493 (1 μM) added in the DE-RA10 culture, FIG. 8C
# [7] = BMS 493 treated vs untreated, ESCs on DE-RA10, FIG. 8E
# [8] = FIG. 8E: ESCs on DE-RA10 with or without BMS 493 (1 μM)
# [9] = FIG. 8B: cells in DE-RA10 vs cells in DE-SE10 treated with soluble RA (1 μM)
# [10] = FIG. 8D: ESCs on DE-RA10 vs ESCs treated by soluble RA
SMILES,ESC proliferation (ESCs [1]; [6]),GFAP expression upon BMS 493 treatment (ESC-derived NPCs [2]; DE-EC condition),"neural marker expression upon BMS 493 (ESC-derived NPCs [2]; NPCs, DE-AC group)","Nestin expression upon BMS 493 treatment (ESC-derived NPCs [2]; NPCs, DE-EC and DE-NC conditions, FIG. 17B)","β-Tubulin III expression upon BMS 493 treatment (ESC-derived NPCs [2]; cells from DE-NC scaffold, FIG. 17C)",GFAP expression upon BMS 493 treatment (ESC-derived NPCs [2]; cells from DE-NC scaffold),cell proliferation after BMS 493 treatment (ESC-derived NPCs [3]),Nestin expression (ESCs [4]; [7]),β-tubulin III expression (ESCs [4]; [7]),expression of FOXA2 (ESCs [4]; [8]),expression of α-actinin (ESCs [4]; [8]),Oct-4 expression (ESCs [5]; [6]),localization of RAR-α (RAR-α),specific growth rate (ESCs [1]; [9]),Nestin expression (ESCs [4]; [10]),β-tubulin III expression (ESCs [4]; [10]),Oct-4 expression (ESCs [5]; [9])
CC1(C)CC=C(C#Cc2ccccc2)c2cc(/C=C/c3ccc(C(=O)O)cc3)ccc21 [BMS 493],reduced ESC proliferation,increased GFAP expression,no changes in neural marker expression,increased,significant decrease,significant decrease,reduced the cell proliferation,increased,similar,24%,3%,not Oct-4 expression,,,,,
"CC1=C(/C=C/C(C)=C/C=C/C(C)=C/C(=O)O)C(C)(C)CCC1 [soluble RA, all-trans retinoic acid]",,,,,,,,,,,,,translocation of RAR-α from cytoplasm to cell nucleus was confirmed,-0.013 h⁻¹,32%,25%,10.1%
